Experimental data reported in patent US6500813B1, “Ophthalmic composition containing active vitamin D” (priority 1995, dated 2002).

What was measured:
[1] = test system: laser-irradiated cornea; assay: Test Example 3: corneal turbidity rating after excimer laser (PTK) irradiation in rabbits; format: in vivo, Japan white rabbits; conditions: 10^−7% solution, 20 μl/dose, 3 times/day over 14 days
Protocol: In this test, 8 Japan white rabbits each weighing 2 kg were used. A laser beam was focused on the corneal center of the right eye of each animal using an excimer laser oscillator (available from Summit Technology Co. U.S.) under anesthesia. The laser beam irradiation was carried out according to the surface-incision mode (PTK), i.e., at an energy density of 165 mj/cm^2, a rate of incision to a depth of 0.25 μm/pulse, a diameter of the incised circular area of 4.5 mm and an irradiated pulse number of 300.
These 8 test animals which had been irradiated with the laser beam were, at random, divided into two groups each comprising 4 animals, one of which constituted a drug-administered group and the other of which constituted a control group. […]
After 24 hours from the laser irradiation, the drug-administered group and the control-group were treated by dropping, in the right eye, a 10^−7% active vitamin D-containing solution [22-oxa-1β,25-dihydroxy vitamin D3: OCT (available from Chugai Pharmaceutical Co., Ltd.)] and the OCT solvent base, respectively, at 20 μl/dose and 3 times/day over 14 days. After 7 and 15 days from the irradiation, the extent of the turbidity of each cornea was evaluated on the basis of the findings for the 8 animals observed under a slit lamp microscope. […]

[2] = test system: laser-irradiated cornea (corneal epithelial cells); assay: Test Example 1: excimer laser (PTK) corneal incision in rabbits, slit lamp and light microscope observation; format: in vivo, Japan white rabbits
Protocol: In this test, 6 Japan white rabbits each weighing 2 kg were used. After anesthetizing each animal by intramuscularly injecting an analgesic-anesthetic at the femoral regions thereof and by simultaneously dropping local anesthetic in the eyes, a laser beam was focused on the corneal center of the right eye using an excimer laser oscillator (available from Summit Technology Co. U.S.). The laser beam irradiation was carried out according to the surface-incision mode (PTK), i.e., at an energy density of 165 mj/cm^2, a rate of incision to a depth of 0.25 μm/pulse, an incised surface diameter of 4.5 mm and a pulse number of 300.
After the laser beam irradiation, an eye drop and an ointment containing an antibiotic agent were administered to the eye. Three (Group A) out of these six animals were treated by dropping, in the right eye, an active vitamin D-containing solution (1 α-monohydroxy vitamin D: 0.01 μg/drop or 0.5 μg/ml; an alpha calcidol solution) in a rate of one drop (0.02 ml)/dose/day, starting from 24 hours after the laser beam irradiation. On the other hand, the remaining three (Group B) out of these six animals constituted a control group and were treated in the same manner by dropping, in the right eye, an ophthalmic buffer solution BSS at a rate of one drop/dose/day.
After 4, 7 and 12 days from the laser beam irradiation, the right eyes of animals in Group A and Group B (one animal each) were observed under a slit lamp microscope, followed by slaughtering one animal in each Group and then enucleation of the eyeballs. The cornea was removed from the sclerocornea of each eyeball, followed by fixing through immersion in a Carnoa's solution for 4 hours, dehydration in dry ethanol, paraffin-embedded to form a corneal slice with a thickness of 4 μm, removing paraffin by xylol, carrying out the hematoxylin-eosin staining and/or PAS staining and observation of the corneal slice under a light microscope.

[3] = test system: lens capsule, aqueous humor and intraocular lens; assay: Test Example 2: lens removal by ultrasonic emulsification and aspiration with intraocular lens transplantation in rabbits, slit lamp observation of turbidity; format: in vivo, Japan white house rabbits; conditions: for fibrin deposition in the anterior chamber: versus sesame oil control (animal C)
Text: In this test, three Japan white house rabbits each weighing 2 kg were used. After anesthetizing each animal by intramuscularly injecting an analgesic-anesthetic at the femoral regions thereof and by simultaneously dropping a local anesthetic in the eyes, the sclerocornea of each animal was dissected over a length of 3.5 mm, followed by excising a circular piece of the arterior capsule at a diameter of about 5 mm from the lens capsule under perfusion of the ophthalmic buffer solution BSS, removal of the lens nuclei and the cortex by the ultrasonic emulsification and aspiration technique, swelling the lens capsule by injecting a viscoelastic substance, then widening the incised port of the sclerocornea to about 7 mm and transplantation, into the lens capsule, of a poly(methyl methacrylate) intraocular lens provided with an optical part having a diameter of 6 mm. After the removal of the viscoelastic substance under vacuum suction, the incised wound of the sclerocornea was sutured with three stitches using a 9-0 nylon suture to thus complete the operation. After the completion of the operation, an eye drop and an ointment containing an antibiotic agent were administered to the conjunctiva. The right eyes of these three animals were subjected to the ultrasonic emulsification and aspiration technique and the transplantation of an intraocular lens.
One (A) out of these three animals was treated with a calcitriol solution in a rate of 1 to 2 drops/dose/day. The calcitriol solution used was prepared by dissolving and diluting calcitriol (1α,25-dihydroxy vitamin D) in ethanol and then further diluting (1:100) the resulting dilute solution, to a calcitriol concentration of 0.5 μg/ml, with an ophthalmic oil base consisting of purified sesame oil. One (B) out of the three animals was treated by orally administering the calcitriol solution in a rate of 1 ml/dose/day using a dropping pipette. The remaining one (C) out of the three animals was treated by dropping ophthalmic purified sesame oil free of any calcitriol in the right eye in a rate of 1 to 2 drops/dose/day. After the mydriasis at 1, 4, 7, 14 and 28 days from the operation, the lens capsule, aqueous humor and intraocular lens for each animal were inspected for the turbidity through the observation under a slit lamp microscope.

[4] = animal A, eye drop, after 7 days from the operation

`C=C1/C(=C\C=C2/CCC[C@]3(C)[C@@H]([C@H](C)OCCC(C)(C)O)CC[C@@H]23)C[C@@H](O)C[C@@H]1O` [OCT, 22-oxa-1β,25-dihydroxy vitamin D3] was tested, and the “degree of turbidity relative to that observed for the control group” value [1] was “about ½” and the “degree of corneal turbidity, rating 0 (no turbidity) to 4 (complete opacification), average of four animals” value ([1]; right eye, evaluated after 7 and 15 days, control group 3.5) was 2.0.
In the case of `C=C1/C(=C\C=C2/CCC[C@]3(C)[C@@H]([C@H](C)CCCC(C)C)CC[C@@H]23)C[C@@H](O)C[C@@H]1O` [alpha calcidol, 1α-monohydroxy vitamin D], the “opacity of the laser-irradiated site under the slit lamp microscope” value ([2]; Group A, right eye, eye drop 0.01 μg/drop (0.5 μg/ml), one drop/dose/day from 24 hours after irradiation, observed after 4, 7 and 12 days, versus BSS control (Group B)) is reported as “quite slight opacity at the peripheral edge of the laser-irradiated site”, the “piling up growth of the corneal epithelial cells, sliced cornea under a light microscope” value ([2]; Group A, right eye, eye drop 0.01 μg/drop, one drop/dose/day, control Group B ran up to 10 layers) is reported as “not observed such tendency as piling up growth” and the “side effect (bleeding, fibrin-deposition, corneal haze/opacity, intraocular inflammation)” value ([2]; Test Example 1, eye drop) is reported as “not observed any side effect”.
In the case of `C=C1/C(=C\C=C2/CCC[C@]3(C)[C@@H]([C@H](C)CCCC(C)(C)O)CC[C@@H]23)C[C@@H](O)C[C@@H]1O` [calcitriol, 1α,25-dihydroxy vitamin D], the “side effect (bleeding, fibrin-deposition, corneal haze/opacity, intraocular inflammation)” value ([3]; Test Example 2, eye drop or oral) is reported as “not observed any side effect”, the “transparency, eye drop (animal A) compared with oral (animal B)” value ([3]; after 28 days from the operation) is reported as “better than that observed for the animal B” and the posterior synechia ([3]; animal A, eye drop) is reported as “did not cause any posterior synechia”. For the same compound, the “fibrin deposition in the anterior chamber” value ([3]; animal A, eye drop 0.5 μg/ml in sesame oil, 1 to 2 drops/dose/day) was “very low as compared with that observed for the animal C”, the “transparency of the anterior capsule” value [3, 4] was “maintained desired transparency” and the “wrinkling and opacity of the anterior capsule” value [3, 4] was “only slight wrinkling of the anterior capsule and opacity of the periphery thereof”. The “opacity and wrinkling of the anterior capsule” value ([3]; animal A, eye drop, after 28 days from the operation) was “slight opacity and wrinkling of the anterior capsule”, the posterior synechia ([3]; animal B, oral) was “did not cause any posterior synechia” and the “fibrin deposition in the anterior chamber” value ([3]; animal B, oral 1 ml/dose/day of 0.5 μg/ml solution) was “very low as compared with that observed for the animal C”. The “opacity and wrinkling of the anterior capsule” value ([3]; animal B, oral, after 28 days from the operation) was “slight opacity and wrinkling of the anterior capsule”.
